The results in this text go back to patent US20240116985A1, “STAPLED PEPTIDES AND METHODS THEREOF” (priority 2020, published 2024).

In brackets after ≈: the same amount, converted by molar mass. Several values for one entry are separate records, joined by “and”; a condition that tells them apart may be missing. Identical values can stand only once. Like-named read-outs stand apart in the source and are kept apart here.

Data set [1] concerns TCF/LEF luciferase Reporter in DLD1 cells. As to the kind of experiment: TCF reporter assay (DLD1 TCF/LEF luciferase reporter, Bright-Glo). As to conditions: read-out: DLD1 4% Abs IC50; DLD1 4%. The class given is cell-based. In a few lines:
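DLD1 cells stably carrying a TCF/LEF luciferase reporter were plated at 5000 cells/well in RPMI + 4% FBS and treated overnight with a 1:2 compound dilution series. Bright-Glo luminescence read on day 3; viability by CellTiter-Glo. Absolute IC50 determined.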

The nature of a further data set: Solubility in PBS. The class given is physicochemical. As to conditions: Solubility (uM). In outline:
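HPLC quantitation of peptide remaining in the PBS supernatant after ultracentrifugation, referenced to a 50 μM solution in DMSO.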

In data set [2] the target is T1, beta-catenin/TCF4 engagement (Homo sapiens, UniProt P35222).
T1 construct: expressed in transfected cells; host or cells: HEK293
T1 sequence (P35222 1-781): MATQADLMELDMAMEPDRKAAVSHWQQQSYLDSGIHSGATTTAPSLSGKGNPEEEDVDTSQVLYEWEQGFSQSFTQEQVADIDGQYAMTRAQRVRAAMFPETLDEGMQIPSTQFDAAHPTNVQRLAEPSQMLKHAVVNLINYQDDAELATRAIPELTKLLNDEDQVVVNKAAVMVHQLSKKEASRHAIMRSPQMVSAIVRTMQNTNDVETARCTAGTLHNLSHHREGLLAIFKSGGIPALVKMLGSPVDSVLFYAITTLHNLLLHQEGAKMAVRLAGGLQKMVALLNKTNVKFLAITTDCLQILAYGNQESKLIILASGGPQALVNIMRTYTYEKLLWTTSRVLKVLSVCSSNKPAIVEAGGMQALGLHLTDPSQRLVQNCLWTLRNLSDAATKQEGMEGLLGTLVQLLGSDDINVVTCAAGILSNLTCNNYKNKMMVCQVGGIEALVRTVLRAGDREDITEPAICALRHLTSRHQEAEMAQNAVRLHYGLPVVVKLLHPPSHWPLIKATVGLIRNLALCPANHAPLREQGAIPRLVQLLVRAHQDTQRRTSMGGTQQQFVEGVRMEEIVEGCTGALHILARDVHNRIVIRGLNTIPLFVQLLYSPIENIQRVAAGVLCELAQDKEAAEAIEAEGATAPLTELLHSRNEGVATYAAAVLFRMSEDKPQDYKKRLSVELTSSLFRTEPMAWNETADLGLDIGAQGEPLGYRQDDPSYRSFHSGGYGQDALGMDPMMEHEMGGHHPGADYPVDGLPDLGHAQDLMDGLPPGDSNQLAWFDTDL
The data set is described as follows: Nano-BRET target engagement assay (B-cat-Halo & TCF4-Luc in HEK293 cells). It counts as cell-based. The note with it: for inhibition at 10 µM: HEK293, 10 uM.

The next data set can be described thus: CHI Log D procedure. It counts as physicochemical. The note with it: pH 7.4, CHI Log D.
In data set [3] the target is T2, full-length beta-Catenin (Uniprot ID P35222) (Homo sapiens, UniProt P35222).
T2 construct: 10 nM full-length beta-Catenin (Uniprot ID P35222)
T2 sequence (P35222 1-781): T1 sequence (P35222 1-781)
The data set is described as follows: Fluorescence polarization IC50 (beta-catenin / 5FAM-TCF4 10-53 competition). The class given is binding. The note with it: read-out: beta-Catenin FP IC50. For orientation: Polarisation of emitted light reports the rotation of a fluorescent probe.

[4] abbreviates: plate row B = 20 uM, integration 0.3 s, reading 1.

As for `CC(=O)N1CCC[C@]12CC=CCCCC1(CCCC=CCCCOC(=O)N3CC[C@@](C(=O)N[C@@H](Cc4ccsc4)C(=O)N[C@@H](Cc4csc5ccccc45)C(=O)N[C@@H](CCC(N)=O)C(=O)N[C@H](C)C(N)=O)(C3)NC(=O)[C@H](CC(N)=O)NC(=O)[C@H](Cc3ccccc3)NC(=O)[C@H](C)NC(=O)[C@H](C)NC(=O)[C@H](CC(=O)O)NC(=O)[C@H](CC(=O)O)NC1=O)NC(=O)[C@H](CC(C)(C)C)NC(=O)[C@H](CC(=O)O)NC2=O` (stereo partly drawn) [I-822, Ac-PL3-Asp-Npg-B5-Asp-Asp-Ala-Ala-Phe-Asn-PyrS2-3Thi-BztA-Gln-dAla-NH2], the IC50 – broadly, the concentration that gives 50% inhibition – came to 7.2 µM in data set [1], 6.3 µM in data set [2] (read-out: NanoBRET Abs IC50), 7.7 µM in data set [2] (read-out: NanoBRET IC50) and 0.006 µM in data set [3]. Further, the concentration in solution in “Solubility in PBS” (Solubility) came to 46 µM (≈ 91.5 µg/mL). In addition, the “BRET % Inhibition” value in data set [2] (0.625 uM, replicates) was −32.1% and −5.3% and 6.3%; in data set [2] (1.25 uM, replicates), −6.1% and −18.2% and −25.1%; in data set [2] (2.5 uM, replicates), −23.7% and 8.1% and −9.2%; in data set [2] (5 uM, replicates), 6.8% and −15.3% and 30.1%; in data set [2] (10 uM, replicates) it was 24.5% and 21.5%; in data set [2] (20 uM, replicates), 52.9% and 40.7% and 71.4%. For the same molecule, the inhibition at 10 µM came to 53% in data set [2] (read-out: NanoBRET % inh @ 10 uM) and 35.7% in data set [2] (replicates, read-out: BRET % Inhibition). Besides, the “BRET Acceptor 600 LP raw reading” value in data set [2] (setting [4]) is 450 and 280; in data set [2] (plate row C = 10 uM), 490 and 470; in data set [2] (plate row D = 5 uM) it was 630 and 600 and 430; in data set [2] (plate row F = 1.25 uM (plate map)), 470 and 380 and 260. The “BRET Donor 450 BP raw reading” value in data set [2] (setting [4]) is 59340 and 52650 and 45840; in data set [2] (plate row C = 10 uM), 54740 and 47760 and 46640; in data set [2] (plate row D = 5 uM), 56000 and 46130 and 45780; in data set [2] (plate row E = 2.5 uM) it was 54130 and 32300 and 33550. The chromatographic logD (as a rule, lipophilicity estimated from chromatographic retention) in the data set “CHI Log D procedure” was 2.03.
